Test results taken from ChEMBL document CHEMBL1201862, “PubChem BioAssay data set” (2004).
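A five-concentration, 48-hour dose response in 96-well plates underlies each endpoint, interpolated linearly between surrounding concentrations. Here, GI50 denotes the concentration required for 50% inhibition of growth.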 Activity calls are given as the source filed them. No stated cut-off is given here; in the data, active = GI50 up to about 1.1 µM and inactive = higher.

Columns and labels:
Experiment in all cases: inhibition of tumour cell growth, NCI panel, 48 h
TK-10 = test system: TK-10
SF-539 = test system: SF-539
MOLT-4 = test system: MOLT-4
NCI-H460 = test system: NCI-H460
M14 = test system: M14
Malme-3M = test system: Malme-3M
HL-60 = test system: HL-60
SNB-75 = test system: SNB-75
SN12C = test system: SN12C
HCC 2998 = test system: HCC 2998
NCI-H23 = test system: NCI-H23
NCI-H522 = test system: NCI-H522
A549 = test system: A549
OVCAR-5 = test system: OVCAR-5
OVCAR-4 = test system: OVCAR-4

Measured: GI50

Cn1c(=O)c(NC(=O)C(Cl)(Cl)Cl)nc2ccccc21
inactive: TK-10 > 100 µM | SF-539 > 100 µM | MOLT-4 > 100 µM | NCI-H460 > 100 µM | M14 > 100 µM | Malme-3M > 100 µM | HL-60 > 100 µM | SNB-75 62.5 µM | SN12C > 100 µM | HCC 2998 > 100 µM | NCI-H23 > 100 µM | NCI-H522 > 100 µM | A549 > 100 µM

CN(C)CCNC(=O)c1cccc2ccc(-c3cccnc3)nc12
inactive: OVCAR-5 3.87 µM | TK-10 2.48 µM | SF-539 11.4 µM | MOLT-4 2.74 µM | NCI-H460 2.94 µM | M14 8.45 µM | Malme-3M 5.41 µM | HL-60 3.71 µM | SNB-75 10.6 µM | SN12C 3.61 µM | HCC 2998 5.31 µM | NCI-H23 4.39 µM | A549 3.7 µM | OVCAR-4 8.24 µM

NC(=O)NC(=O)C1CCC(=O)N1S(=O)(=O)c1ccc(Cl)cc1 (configuration not stated)
inactive: TK-10 > 100 µM | SF-539 > 100 µM | MOLT-4 > 100 µM | NCI-H460 > 100 µM | M14 > 100 µM | Malme-3M > 100 µM | HL-60 > 100 µM | SNB-75 > 100 µM | SN12C > 100 µM | NCI-H23 > 100 µM | NCI-H522 63 µM | A549 > 100 µM | OVCAR-4 > 100 µM

O=C1N2Cc3c4ccc5c3CN3C(=O)N6Cc7c(ccc(c7CN1C6(c1ccccc1)C23c1ccccc1)OCCOCCOc1cc(Br)c(Br)cc1OCCOCCO4)OCCOCCOc1cc(Br)c(Br)cc1OCCOCCO5 (configuration not stated)
inactive: TK-10 65.9 µM | SF-539 20.1 µM | MOLT-4 > 100 µM | NCI-H460 > 100 µM | M14 21.9 µM | Malme-3M 75.5 µM | SNB-75 38.2 µM | SN12C 39.3 µM | HCC 2998 > 100 µM | NCI-H23 > 100 µM | NCI-H522 > 100 µM | A549 > 100 µM | OVCAR-4 36.5 µM

CC(=O)OCC1OC(N2C(=O)/C(=N\NC(N)=S)c3ccc([N+](=O)[O-])cc32)C(OC(C)=O)C1OC(C)=O (configuration not stated)
inactive: OVCAR-5 61.2 µM | TK-10 > 100 µM | SF-539 24.1 µM | MOLT-4 15.3 µM | NCI-H460 20.1 µM | M14 70.5 µM | Malme-3M 33.7 µM | HL-60 16.6 µM | SNB-75 18.6 µM | SN12C 36.1 µM | HCC 2998 26.4 µM | NCI-H23 16.4 µM | NCI-H522 15 µM | A549 40.8 µM | OVCAR-4 19 µM

C=CCN1C(=O)CS/C1=N\NC(=O)c1c(C)nc2sccn12
inactive: OVCAR-5 > 100 µM | TK-10 > 100 µM | SF-539 > 100 µM | MOLT-4 > 100 µM | NCI-H460 > 100 µM | Malme-3M > 100 µM | HL-60 > 100 µM | SN12C > 100 µM | HCC 2998 > 100 µM | NCI-H23 > 100 µM | NCI-H522 > 100 µM | A549 > 100 µM

CCNC(=O)/C=C/CCC#Cc1ccc(-c2ccc(-c3cccs3)s2)s1
inactive: OVCAR-5 > 100 µM | TK-10 > 100 µM | SF-539 > 100 µM | MOLT-4 > 100 µM | NCI-H460 > 100 µM | M14 5.61 µM | Malme-3M 3.52 µM | HL-60 > 100 µM | SNB-75 > 100 µM | HCC 2998 > 100 µM | NCI-H23 > 100 µM | NCI-H522 > 100 µM | A549 > 100 µM | OVCAR-4 > 100 µM

COc1cc2cc[n+](C)c(Cc3ccccc3)c2cc1OC
inactive: OVCAR-5 > 100 µM | TK-10 > 100 µM | SF-539 > 100 µM | MOLT-4 > 100 µM | NCI-H460 > 100 µM | M14 > 100 µM | Malme-3M > 100 µM | SNB-75 > 100 µM | SN12C > 100 µM | NCI-H23 > 100 µM | NCI-H522 86.1 µM | A549 > 100 µM | OVCAR-4 > 100 µM

Cc1ccc([N+](=O)[O-])cc1NC(=O)c1cccc([N+](=O)[O-])c1O
inactive: TK-10 31.2 µM | SF-539 12.3 µM | MOLT-4 15.6 µM | NCI-H460 12.2 µM | M14 16.8 µM | Malme-3M 5.09 µM | HL-60 5.01 µM | SNB-75 13.4 µM | SN12C 23.8 µM | NCI-H23 12.3 µM | NCI-H522 3.97 µM | A549 22.4 µM

COc1ccc(C2NCCc3c2[nH]c2ccccc32)cc1 (configuration not stated)
inactive: OVCAR-5 > 100 µM | TK-10 > 100 µM | SF-539 > 100 µM | MOLT-4 > 100 µM | NCI-H460 88.9 µM | M14 23.2 µM | Malme-3M 27 µM | HL-60 > 100 µM | SNB-75 30.5 µM | SN12C > 100 µM | HCC 2998 24.7 µM | NCI-H23 > 100 µM | NCI-H522 > 100 µM | A549 48.2 µM

CC(=O)O[C@]12CCCCCCC1C1(O)C(O)CCC[C@H]12 (some centres not stated)
inactive: TK-10 > 100 µM | MOLT-4 > 100 µM | NCI-H460 > 100 µM | M14 > 100 µM | Malme-3M > 100 µM | HL-60 > 10 µM | SNB-75 > 100 µM | SN12C > 100 µM | NCI-H23 > 100 µM | NCI-H522 > 100 µM | A549 > 100 µM | OVCAR-4 > 100 µM

CSc1nc2c(nc(N)n2C2OC(CO)C(O)C(O)C2O)c(=O)n1C (configuration not stated)
inactive: TK-10 > 100 µM | SF-539 > 100 µM | MOLT-4 > 100 µM | NCI-H460 > 100 µM | M14 > 100 µM | Malme-3M > 100 µM | HL-60 > 100 µM | SNB-75 > 100 µM | SN12C > 100 µM | HCC 2998 > 100 µM | NCI-H23 > 100 µM | NCI-H522 > 100 µM | A549 > 100 µM | OVCAR-4 > 100 µM

CC(=O)NC(CCCN)C(=O)NCc1ccccc1 (configuration not stated)
inactive: OVCAR-5 > 100 µM | TK-10 > 100 µM | SF-539 > 100 µM | MOLT-4 > 100 µM | NCI-H460 > 100 µM | M14 > 100 µM | Malme-3M > 100 µM | SNB-75 > 100 µM | SN12C > 100 µM | HCC 2998 > 100 µM | NCI-H23 > 100 µM | NCI-H522 > 100 µM | A549 > 100 µM | OVCAR-4 > 100 µM

O=C(Nc1c(-c2nc3ccccc3[nH]2)sc(=S)n1-c1ccccc1)c1ccccc1
inactive: OVCAR-5 > 100 µM | TK-10 > 100 µM | SF-539 48.8 µM | MOLT-4 > 100 µM | M14 > 100 µM | Malme-3M > 100 µM | HL-60 > 100 µM | SNB-75 29.4 µM | SN12C 74 µM | HCC 2998 > 100 µM | NCI-H23 > 100 µM | NCI-H522 > 100 µM | A549 > 100 µM | OVCAR-4 > 10 µM
